# Reference: patent US6911470B1, “Polyoxometalate compounds as antiviral agents” (priority 1988, dated 2005)
# Read-outs that look alike come from different tables or passages of the source.
# Legend:
# HIV-1 (strain LAV-1) = experiment: microbe, parasite or virus in culture; type: cell-based
# Method: Cells. Human peripheral blood mononuclear cells (PBMC) from healthy HIV-1 seronegative and hepatitis B virus seronegative donors were isolated by Ficoll-Hypaque discontinuous gradient centrifugation at 1,000×g for 30 minutes, washed twice in phosphate-buffered saline (pH 7.2; PBS), and pelleted at 300×g for 10 minutes. Before infection, the cells were stimulated by phytohemagglutinin (PHA) at a concentration of 6 μg/ml for three days in RPMI 1640 medium supplemented with 15% heat-inactivated fetal calf serum, 1.5 mM L-glutamine, penicillin (100 U/ml), streptomycin (100 μg/ml), and 4mM sodium bicarbonate buffer.
# Viruses. HIV-1 (strain LAV-1) was obtained from Dr. P. Feorino (Centers for Disease Control, Atlanta, Ga.). The virus was propagated in human PBMC using RPMI 1640 medium, as described previously (McDougal et al, J. Immun. Meth. 76, 171-183, 1985) without PHA and supplemented with 7% v/v interleukin-2 (Advanced Biotechnologies, Silver Spring, Md.), 7 μg/ml DEAE-dextran (Pharmacia, Uppsala, Sweden), and 370 U/ml anti-human leucocyte (alpha) interferon (ICN, Lisle, Ill.). Virus obtained from cell-free culture supernatant was titrated and stored in aliquots at −80° C. until use.
# Inhibition of virus replication in human PBMC. Uninfected PHA-stimulated human PBMC were uniformly distributed among 25 cm^2 flasks to give a 5 ml suspension containing about 2×10^6 cells/ml. Suitable dilutions of virus were added to infect the cultures. The mean reverse transcriptase (RT) activity of the inocula was 50,000 decompositions per min/ml corresponding to about 100 TCID50, as determined by Groopman et al. (Groopman et al, AIDS Res. Human Retro. 3, 71-85, 1987. The drugs at twice their final concentrations in 5 ml of RPMI 1640 medium, supplemented as described above, were added to the cultures. Uninfected and untreated PBMC at equivalent cell densities were grown in parallel as controls. The cultures were maintained in a humidified 5% CO2-95% air incubator at 37° C. for six days after infection, at which point all cultures were sampled for supernatant reverse transcriptase (RT) activity.
# RT activity assay. Six ml supernatant from each culture was clarified from cells at 300×g for 10 minutes. Virus particles were pelleted from 5 ml samples at 40,000 rpm for 30 minutes using a Beckman 70.1 Ti rotor and suspended in 200 μl of virus disrupting buffer (50 mM Tris-Cl, pH 7.8, 800 mM NaCl, 20% glycerol, 0.5 mM phenylmethyl sulfonyl fluoride, and 0.5% Triton X-100).
# The RT assay was performed in 96-well microtiter plates, as described by Spira et al. (Spira et al, J. Clin. Microbiol. 22, 97-99, 1987). The reaction mixture, which contained 50 mM Tris-Cl pH 7.8, 9 mM MgCl2, 5 mM dithiothreitol (DTT), 4.7 μg/ml (rA)n. (dT)12-18, 140 μM dATP, and 0.22 μM [^3H]TTP, specific activity 78.0 Ci/mmol, equivalent to 17,300 cpm/pmol; NEN Research Products, Boston, Mass., was added to each well. The sample (20 μl) was added to the reaction mixture which was then incubated at 37° C. for 2 hours. The reaction was terminated by the addition of 100 μl 10% trichloroacetic acid (TCA) containing 0.45 mM sodium pyrophosphate. The acid-insoluble nucleic acids which precipitated were collected on glass filters using a Skatron semi-automatic harvester. The filters were washed with 5% TCA and 70% ethanol, dried, and placed in scintillation vials. Four ml of scintillation fluid (Econofluor, NEN Research Products, Boston, Mass.) were added and the amount of radioactivity in each sample was determined using a Packard Tri-Carb liquid scintillation analyzer (model 2,000CA). The results were expressed in dpm/ml of original clarified supernatant.
# Median-effect method. Dose-effect relationships were analyzed by the median-effect equation (Chou et al, Adv. Enz. Regul. 22, 27-55, 1984).
# human PBM cells = experiment: Cytotoxicity assay on uninfected PHA stimulated human PBMC (trypan blue); type: cell-based; conditions: Table 1; read-out: IC50 Toxicity in Human PBM Cells
# Method: Cells. […] PBS), and pelleted at 300×g for 10 minutes. […] Cytotoxicity assay. The drugs were evaluated for their potential toxic effects on uninfected PHA stimulated human PBMC. Flasks were seeded so that the final cell concentration was 2×10^5 cells/ml. The cells were cultured with and without drug for 6 days, at which time aliquots were counted for cell viability, as assessed by the trypan blue dye-exclusion method using a hemacytometer. The median inhibitory concentration (IC50) was calculated using the median effect method (Chou et al, Elsevier-Biosoft, Elsevier Science Publishers, Cambridge, U.K., 1985; Chou et al, Adv. Enz. Regul. 22, 27-55, 1984). Median-effect method. Dose-effect relationships were analyzed by the median-effect equation (Chou et al, Adv. Enz. Regul. 22, 27-55, 1984). The slope (m) and median effective and inhibitory concentration (EC50 and IC50) values were obtained by using a computer program developed by Chou and Chou (Chou et al, Elsevier-Biosoft, Elsevier Science Publishers, Cambridge, U.K., 1985).
# [1] = Comparison of toxicity of polyoxometalate compounds in mice (mortality, haematology); type: in vivo; set-up: MCV (mean corpuscular volume): unit not given here; conditions: BID × 6, 60 mkd i.p.
# From the text: Comparison of Toxicity of Polyoxometalate Compounds Mice.
# In vivo antiviral experiments. […] Treatment was continued daily for 6 or 10 days.
# [2] = tested on: human granulocyte-macrophage precursor cells; type: cell-based
# From the text: Preparation of Cells. Human bone marrow cells were collected by aspiration from the posterior iliac crest of normal healthy volunteers, treated with heparin and the mononuclear population separated by Ficoll-Hypaque gradient centrifugation. Cells were washed twice in Hanks balanced salt solution, counted with a hemacytometer and their viability was >98% as assessed by trypan blue exclusion.
# Assay of Colony-Forming Unit Granulocyte-Macrophage (CFU-GM) for Drug Cytotoxicity. The culture assay for CFU-GM was performed using a bilayer soft-agar method as recently described (Sommadossi et al, Antimicrob. Agents Chemother. 31, 452-454, 1987). McCoy 5A nutrient medium supplemented with 15% dialyzed fetal bovine serum (heat inactivated at 56° C. for 30 min.) (Gibco Laboratories, Grand Island, N.Y.) was used in all experiments. This medium was completely lacking in thymidine and uridine. Cells were cloned in 0.3% agar in the presence of increasing concentrations of the modulating compound or in medium alone (control). After 14 days of incubation at 37° C. in a humidified atmosphere of 5% CO2 in air, colonies (≧50 cells) were counted using an inverted microscope.
# The toxicities of a variety of polyoxometalates with respect to human bone marrow cells (human granulocyte-macrophage precursor cells) were assessed.
# [3] = reason it must be taken intravenously; cited from earlier work
# human bone marrow cells = conditions: background statement; cited from earlier work
# [4] = background statement; AZT in a clinical setting; cited from earlier work
# [5] = biological target: T1, HIV-1 reverse transcriptase (Human immunodeficiency virus type 1 group M subtype B, UniProt P04585); experiment: Evaluation of compounds on purified retroviral RT (cell-free, virion-derived); type: biochemical; conditions: Table 2; read-out: EC-50 Cell-Free RT (virion-derived)
# T1 construct: HIV-1 RT was isolated from detergent disrupted virions; made in house; host or cells: virions pelleted from culture fluid of HIV-1-infected PHA-stimulated human PBMC; DEAE-cellulose and phosphocellulose chromatography
# Method: Evaluation of compounds on purified retroviral RT. HIV-1 RT was isolated from detergent disrupted virions obtained from the cell-free supernatant of infected PHA-stimulated PBMC. The enzyme was purified by passing the extract through ion-exchange chromatography columns, as described previously (Eriksson et al, Antimicrob. Agents Chemother. 31, 600-604, 1977. Briefly, 750 ml of culture fluid harvested from HIV-1-infected PBMC were ultracentrifuged to pellet the virus. The pellet was dissolved in buffer A [50 mM Tris-HCl, pH 7.9/0.25% Nonidet P-40/5 mM dithiothreitol/20% (vol/vol) glycerol] containing 1 mM EDTA, and freeze-thawed four times. After clarification by centrifugation, the enzyme was partially purified from the supernatant by passing the extract through a DEAE-cellulose column (Whatman DE-52; 2.6×15 cm) previously equilibrated with buffer B (50 mM Tris-Cl, pH 7.9, 50 mM KCl, 1 mM EDTA, 1 mM dithiothreitol, 20% glycerol). Elution was performed using a linear gradient 50-500 mM KCl in buffer B. Fractions containing enzyme activity were dialyzed against buffer B and were further purified on a phosphocellulose column (Whatman P-11) using a linear KCl (50-500 mM) gradient in buffer B. The peak fractions were pooled and dialyzed against buffer B. The enzyme was characterized as HIV-1 reverse transcriptase based on its cation, salt, pH, and template requirements according to previous descriptions (Eriksson et al, Antimicrob. Agents Chemother. 31, 600-604, 1977). The standard reaction mixture was used to evaluate the inhibitory effect of the drugs, as previously described (Eriksson et al, Antimicrob. Agents Chemother. 31, 600-604, 1977). Briefly, the reaction mixtures (final volume 100 μl) contained 100 mM Tris-HCl, pH 8.0, 50 mM KCl, 2 mM MgCl2, 5 mM DTT, 400 ug/ml bovine serum albumin, 3 μg/ml (rA)·(dT)12-18 and 1 μM of [^3H]TTP (specific activity 82.3 Ci/mmol). The reactions were started by the addition of 10 μl of partially purified RT, incubated at 37° C. for 60 min., and processed as previously described (Eriksson et al, Antimicrob. Agents Chemother. 31, 600-604, 1977).
# Median-effect method. Dose-effect relationships were analyzed by the median-effect equation (Chou et al, Adv. Enz. Regul. 22, 27-55, 1984). The slope (m) and median effective and inhibitory concentration (EC50 and IC50) values were obtained by using a computer program developed by Chou and Chou (Chou et al, Elsevier-Biosoft, Elsevier Science Publishers, Cambridge, U.K., 1985).
# [6] = tested on: Mouse Ecotropic, CNS (CAS-Br-M); experiment: UV/XC assay for murine retroviruses in SC-1 cells; type: cell-based, murine retrovirus; conditions: Table 2; read-out: EC-50 Mouse Ecotropic, CNS (CAS-Br-M)
# Method: UV/XC Assay for Murine Retroviruses Cells. Mouse embryo fibroblasts (SC-1) and XC cells were obtained from the American Type Culture Collection, Rockville, Md. […] The cells were maintained in Eagle's minimum essential medium with Hanks balanced salt solution, supplemented with penicillin (100 U/ml), streptomycin (100 μg/ml), sodium bicarbonate (24 mM), Hepes (25 mM), and either 2 (maintenance) or 10 (growth) percent inactivated newborn or fetal calf serum.
# Virus quantitation by UV-XC assay. The XC test (Rowe et al, Virology 42, 1136-1139, 1970) is a plaque-type of assay which tests for the presence and titer of B- and N-tropic murine leukemia viruses. Because these viruses produce no overt signs of infection of SC-1 mouse cells, it is necessary to overlay the virus producing culture with an indicator cell line, XC. The number of syncytia that are produced is a direct measure of the virus titer in FFU.
# Six-well plates were seeded with 1×10^5 SC-1 mouse cells on the first day. On the following day the medium was removed and the inoculum (0.2 ml) was added in medium containing polybrene (4 μg/ml). For determining the antiviral activity of the compounds in culture, the virus dilution selected produced in untreated cultures about 80 foci per well. […] Control cells without virus but receiving the drug provided an estimate of the drug's toxic effects as quantitated by using trypan blue staining.
# [7] = Table 2, several values per cell, some in brackets, read-out: EC-50 HIV-1 (LAV-1)
Substance,"EC50 (HIV-1 (strain LAV-1); Table 1, read-out: EC50 Anti-HIV-1 Activity in Human PBM Cells)",EC50 (HIV-1 (strain LAV-1); [7]),IC50 (human PBM cells),Hct (hematocrit) ([1]; bled on day 17),Hgb (hemaglobin) ([1]; bled on day 17),MCH ([1]; bled on day 17),MCHC (mean corpuscular hemoglobin concentration) ([1]; bled on day 17),MCV (mean corpuscular volume) ([1]; bled on day 17),PLT (platelates) (×1000) ([1]; bled on day 17),RBC (×1000000) ([1]; bled on day 17),RDW (width of red cells) ([1]; bled on day 17),WBC (×1000) ([1]; bled on day 17),Mortality ([1]; dead/total),"toxicity to human bone marrow cells (order of toxicity, FIG. 6) [2]",pH at which it degrades [3],toxicity to human bone marrow cells (human bone marrow cells),adverse effect [4],EC50 [5],EC50 [6]
"(NH4)17Na[NaSbgW21O86] [Formula 1, reference compound]",390 nM,290 nM,35000 nM,14.82 ± 4.44%,5.5 ± 1.43 g/dL,17.64 ± 2.07 pg,37.66 ± 4.32 g/dL,46.86 ± 0.4,226.4 ×1000,3.16 ± 0.95 ×1000000,35.6 ± 2.12%,4.16 ± 1.45 ×1000,0/5,most toxic,< 4,high toxicity,induces thrombocytopenia,,
K5BW12O40 [α-K5BT],,360 nM,,,,,,,,,,,,,,,,2900 nM,910 nM
